Patent US20210145834A1, “COMBINATION OF POZIOTINIB WITH CYTOTOXIC AGENT AND/OR OTHER MOLECULARLY TARGETED AGENT AND USE THEREOF” (Spectrum Pharmaceuticals, Inc., priority 2018, published 2021)
Where “and” joins values, the source holds several entries; their conditions need not be identical. Equal values may be shown once. Read-outs that look alike come from different tables or passages of the source.

Columns and labels:
Format in all cases: cell-based
[1] = tested on: TE-4 cells; experiment: Cell growth inhibition assay (sulforhodamine B), single agents and combinations; details: 72 h; TE-4, single agent, 3 days
Description: The effect of the inventive compositions on the cancer cell growth inhibition was conducted in EGFR-overexpressed or -mutated cancer cell lines. […] All cells except for H1975 were cultured for 72 hours prior to cell plating. […] Approximately 24 hours after plating, cells were exposed to ten, two-fold or three fold serial dilutions of test individual compounds or the combination of the two test compounds at a constant molar to molar ratio or non-constant ratio of two agents. Cells were incubated in the presence of compounds for 3 days except for H1975, which was for 2 days at 3×10^3 cells/well. Cell growth inhibition based on measurement of cellular protein content is determined by sulforhodamine B colorimetric assay according to the “Nat Protoc. […] The absorbance was read on a SpectraMax™ plate reader at 540 nm. For H1975 cells, cell growth (%) is determined by adding CellTiter™ 96 Aqueous One Solution Cell Proliferation Assay reagent (Promega) according to the manufacturer's protocol. […] Cell growth (%) was calculated by following equations. Percentage growth inhibition was calculated using: a. […] [(Ti−Tz)/Tz]×100, for concentrations for which Ti<Tz Each T value means an absorbance. […] Combination effects on potency were evaluated by combination Index using Calcusyn™ Software. […] The combination Index (CI) at the dose of combination GI50 was evaluated by using CalcuSyn™ (Biosoft).

[2] = tested on: BT-474 cells; experiment: as above; details: BT-474, single agent, 3 days
Description: (§1) The effect of the inventive compositions on the cancer cell growth inhibition was conducted in EGFR-overexpressed or -mutated cancer cell lines.
(§2) All cells except for H1975 were cultured for 72 hours prior to cell plating. Cells were seeded in a 96-well plate at 4 to 15×10^3 cells/well. Approximately 24 hours after plating, cells were exposed to ten, two-fold or three fold serial dilutions of test individual compounds or the combination of the two test compounds at a constant molar to molar ratio or non-constant ratio of two agents. Cells were incubated in the presence of compounds for 3 days except for H1975, which was for 2 days at 3×10^3 cells/well.
(§3) Cell growth inhibition based on measurement of cellular protein content is determined by sulforhodamine B colorimetric assay according to the “Nat Protoc. […] The absorbance was read on a SpectraMax™ plate reader at 540 nm. For H1975 cells, cell growth (%) is determined by adding CellTiter™ 96 Aqueous One Solution Cell Proliferation Assay reagent (Promega) according to the manufacturer's protocol.
(§4) Inhibition of cell growth was estimated after treatment with test agent or combination of test agents for incubating time (2-3 days) and comparing the signal to cells treated with vehicle (DMSO). Cell growth (%) was calculated by following equations.
(§5) Percentage growth inhibition was calculated using:
(§6) a. [(Ti−Tz)/(C−Tz)]×100, for concentrations for which Ti=Tz
(§7) b. [(Ti−Tz)/Tz]×100, for concentrations for which Ti<Tz
(§8) Each T value means an absorbance. Tz: Time zero (cell density group before the treatment of test group), C:100% control growth […] test agent, Ti: Test growth in the presence of drug at the concentration levels.
(§9) Combination effects on potency were evaluated by combination Index using Calcusyn™ Software. The range of Combination Index (CI) for two compounds is described in Table 2.
(§10) Fifty percent growth inhibition values (GI50) for combinations of poziotinib with partner drugs were calculated and the single dosing growth inhibition (%) at the dose of combo GI50 were also calculated by using GraphPad Prism™ v6. The combination Index (CI) at the dose of combination GI50 was evaluated by using CalcuSyn™ (Biosoft).

[3] = tested on: MDA-MB-453 cells; experiment: as above; details: MDA-MB-453, single agent, 3 days
Description: as §1, §2, §3, §4, §5, §6, §7, §8, §9, §10

[4] = tested on: HCC827 cells; experiment: as above; details: HCC827, single agent, 3 days
Description: as §1, §2, §3, §4, §5, §6, §7, §8, §9, §10

[5] = tested on: H1975 cells; experiment: Cell growth inhibition assay (CellTiter 96 Aqueous One), single agents and combinations; details: H1975, single agent, 2 days
Description: as §1, §2, §3, §4, §5, §6, §7, §8, §9, §10

[6] = tested on: SK-BR-3 cell line; experiment: Synergy effect study on cell proliferation (Example 2), single agents and 6x6 combo matrix; details: SK-BR-3, single compound, 3 days
Description: In this example, effects of direct cell killing of selected cancer cell line Calu-3, BT-474 and SK-BR-3 treated with Poziotinib alone or in combination with other agents were assessed.
All cells were cultured in the media listed in the temperature of 37° C., 5% CO2 and 95% humidity. Cells were seeded in a 96-well plate at 4 to 15×10^3 cells/well. Approximately 24 hours after plating, cells were exposed to ten, two-fold or three fold serial dilutions of test individual compounds or the combination of the two test compounds at a constant molar to molar ratio or non-constant ratio of two agents. Cells were incubated in the presence of compounds for 3 days.
as §4
(§11) Percentage growth inhibition was calculated using both Bliss independence model and Lowewe additivity model. A score higher than 5 indicates synergy and a score less that −5 indicates antagonism.
Calu-3, BT-474 or SK-BR-3 cell lines were tested with Poziotinib combined with a second compound respectively in a 6×6 combo matrix for 3 days at 37° C., 5% CO2 and 95% humidity as shown in combinations shown in the tables herein below: […]

[7] = tested on: Calu-3 cell line; experiment: as above; details: Calu-3, single compound; for Max inh. / IC50: 3 days
Description: (§12) Cells were seeded in a 96-well plate at 4 to 15×10^3 cells/well. Approximately 24 hours after plating, cells were exposed to ten, two-fold or three fold serial dilutions of test individual compounds or the combination of the two test compounds at a constant molar to molar ratio or non-constant ratio of two agents. Cells were incubated in the presence of compounds for 3 days.
as §4, §11

[8] = tested on: BT-474 cell line; experiment: as above; details: BT-474, single compound; for IC50 / Max inh.: 3 days
Description: as §12, §4, §11

[9] = tested on: N87 cells; experiment: Cell growth inhibition assay (sulforhodamine B), single agents and combinations; details: 72 h; N87, single agent, 3 days
Description: as §1, §2, §3, §4, §5, §6, §7, §8, §9, §10

[10] = tested on: MDA-MB-468 cells; experiment: as above; details: Homo sapiens, 72 h; MDA-MB-468, single agent, 3 days
Description: as §1, §2, §3, §4, §5, §6, §7, §8, §9, §10

[11] = tested on: MDA-MB-361 cells; experiment: as above; details: Homo sapiens, 72 h; MDA-MB-361, single agent, 3 days
Description: as §1, §2, §3, §4, §5, §6, §7, §8, §9, §10

[12] = tested on: SK-BR-3 cells; experiment: as above; details: Homo sapiens, SK-BR-3, 72 h; SK-BR3, single agent, 3 days
Description: as §1, §2, §3, §4, §5, §6, §7, §8, §9, §10

[13] = tested on: MCF-7 cells; experiment: as above; details: Homo sapiens, MCF7, 72 h; MCF-7, single agent, 3 days
Description: as §1, §2, §3, §4, §5, §6, §7, §8, §9, §10

[14] = Homo sapiens, Calu-3, 72 h, read-out: IC50

## O=c1[nH]cc(F)c(=O)[nH]1 [5-FU, Fluorouracil]
[1]
  GI50: 7900 nM
[2]; Homo sapiens, BT-474, 72 h
  GI50: 9000 nM
[3]; Homo sapiens, MDA-MB-453, 72 h
  GI50: 385 nM
[4]; Homo sapiens, 72 h
  GI50: 980 nM
[5]; Homo sapiens, NCI-H1975, 48 h
  GI50: > 10000 nM

## N.N.[Cl][Pt][Cl] [Cisplatin]
[6]
  IC50: 549 nM
  Max inh.: 98.11%
[7]
  Max inh.: 59.75% and 69.39% and 68.77%
[8]
  IC50: > 100000 nM
  Max inh.: 41.78% and 37.43%
[2]
  GI50: > 20000 nM
[3]
  GI50: > 10000 nM
[4]
  GI50: > 20000 nM
[5]
  GI50: > 10000 nM

## N#Cc1ccc(C(c2ccc(C#N)cc2)n2cncn2)cc1 [Letrozole]
[8]
  cell inhibitory activity (in words): weak or no response
  Max inh.: −15.80%
[8]; Homo sapiens, 72 h
  IC50: > 10000 nM

## CC(=O)O[C@H]1C(=O)[C@@]2(C)[C@H]([C@H](OC(=O)c3ccccc3)[C@]3(O)C[C@H](OC(=O)[C@H](O)[C@@H](NC(=O)c4ccccc4)c4ccccc4)C(C)=C1C3(C)C)[C@]1(OC(C)=O)CO[C@@H]1C[C@@H]2O [Paclitaxel]
[2]; Homo sapiens, BT-474, 72 h
  GI50: 1 nM
[3]; Homo sapiens, MDA-MB-453, 72 h
  GI50: 3 nM
[4]; Homo sapiens, 72 h
  GI50: 3.4 nM
[5]; Homo sapiens, NCI-H1975, 48 h
  GI50: 21.6 nM

## CC(=O)c1c(C)c2cnc(Nc3ccc(N4CCNCC4)cn3)nc2n(C2CCCC2)c1=O [Palbociclib]
[8]
  Max inh.: 12.13%
[8]; Homo sapiens, 72 h
  IC50: > 5000 nM

## Nc1nc2[nH]cc(CCc3ccc(C(=O)N[C@@H](CCC(=O)O)C(=O)O)cc3)c2c(=O)[nH]1 [Pemetrexed]
[7]
  cell inhibitory activity (in words): not effective
  Max inh.: 49.78%
[7]; [14]
  IC50: > 10000 nM
[8]
  cell inhibitory activity (in words): not effective
  Max inh.: 1.78%
[8]; Homo sapiens, 72 h
  IC50: > 10000 nM

## C=CC(=O)N1CCC(Oc2cc3c(Nc4ccc(Cl)c(Cl)c4F)ncnc3cc2OC)CC1 [Poziotinib, 1-[4-[4-(3,4-dichloro-2-fluoroanilino)-7-methoxyquinazolin-6-yl]oxypiperidin-1-yl]prop-2-en-1-one]
[6]; Homo sapiens, 72 h
  IC50: 1 nM
[6]
  Max inh.: 57.81%
[1]
  GI50: 0.8 nM
[7]
  Max inh.: 94.51% and 81.67%
[7]; listed as Pozotinb
  Max inh.: 89.22%
[8]
  Max inh.: 71.74%
[8]; listed as Pozotinb
  IC50: < 1.5 nM
  Max inh.: 68.16%
[8]; Homo sapiens, 72 h
  IC50: < 1.5 nM
[9]
  GI50: 0.1 nM
[2]; Homo sapiens, BT-474, 72 h
  GI50: 0.5 nM
[3]; Homo sapiens, MDA-MB-453, 72 h
  GI50: 2.5 nM
[10]
  GI50: 640 nM
[11]
  GI50: 21 nM
[12]
  GI50: 0.9 nM
[13]
  GI50: 2740 nM
[4]; Homo sapiens, 72 h
  GI50: 0.4 nM
[5]
  GI50: 1.3 nM

## CNC(=O)c1cc(Oc2ccc(NC(=O)Nc3ccc(Cl)c(C(F)(F)F)c3)cc2)ccn1 [Sorafenib]
[7]
  Max inh.: 64.29%
[7]; [14]
  IC50: 4480 nM

## CO[C@H]1C[C@@H]2CC[C@@H](C)[C@@](O)(O2)C(=O)C(=O)N2CCCC[C@H]2C(=O)O[C@H]([C@H](C)C[C@@H]2CC[C@@H](OC(=O)C(C)(CO)CO)[C@H](OC)C2)CC(=O)[C@H](C)/C=C(\C)[C@@H](O)[C@@H](OC)C(=O)[C@H](C)C[C@H](C)/C=C/C=C/C=C/1C [Temsirolimus]
[7]
  Max inh.: 58.19%
[7]; [14]
  IC50: 167 nM

## CC(=O)Nc1cccc(-n2c(=O)n(C3CC3)c(=O)c3c(Nc4ccc(I)cc4F)n(C)c(=O)c(C)c32)c1 [Trametinib]
[7]
  Max inh.: 89.69%
[7]; [14]
  IC50: 42 nM
[8]
  Max inh.: 15.91%
[8]; Homo sapiens, 72 h
  IC50: > 10000 nM

## CCC1=C[C@@H]2CN(C1)Cc1c([nH]c3ccccc13)[C@@](C(=O)OC)(c1cc3c(cc1OC)N(C)[C@H]1[C@@](O)(C(=O)OC)[C@H](OC(C)=O)[C@]4(CC)C=CCN5CC[C@]31[C@@H]54)C2 [Vinorelbine]
[2]; Homo sapiens, BT-474, 72 h
  GI50: 2.3 nM
[10]
  GI50: 0.3 nM
[11]
  GI50: 1.1 nM
[12]
  GI50: 1.7 nM
[13]
  GI50: 3.6 nM

## ado-trastuzumab emtansine [T-DM1]
[6]
  Max inh.: 85.37%
[7]
  IC50: 90.449 µg/mL
  Max inh.: 55.24%
